Reference: patent US20040176422A1, “Heteroarylheteroalkylamine derivatives and their use as inhibitors of nitric oxide synthase” (priority 2001, published 2004)
Structures can show the parent of a compound that is named as a salt.

| melting point | Compound |
| --- | --- |
| 151 to 153 °C | Cl.N#Cc1ccc(C(F)(F)F)nc1O[C@H](CCN)c1nccs1 [Example 12, 2-[[(1R)-3-Amino-1-(2-thiazolyl)propyl]oxy]-6-(trifluoromethyl)-3-pyridinecarbonitrile Hydrochloride] |
| 165 to 167 °C | Cc1ccc(C#N)c(S[C@H](CCN)c2ccno2)n1 [Example 6, 2-[[(1R)-3-Amino-1-(5-isoxazolyl)propyl]thio-6-methyl-3-pyridinecarbonitrile Ethanedioate] |
| 175 to 177 °C | Cc1ccc(C#N)c(OC(CCN)c2ccns2)n1.O=C(O)C(=O)O (stereo not drawn) [Example 22, 2-[3-Amino-1-(5-isothiazolyl)propoxy]-6-methyl-3-pyridinecarbonitrile Ethanedioate] |
| 151 to 152 °C | N#Cc1ccc(C(F)(F)F)nc1O[C@H](CCN)c1cc(Cl)no1.O=C(O)/C=C/C(=O)O [Example 18, 2-[[(1R)-3-Amino-1-(3-chloro-5-isoxazolyl)propyl]oxy]-6-(trifluoromethyl)-3-pyridinecarbonitrile (E)-butenedioate] |
| 160 to 163 °C | N#Cc1cnc(N)cc1S[C@H](CCN)c1ccno1.O=C(O)/C=C/C(=O)O [Example 14, 6-Amino-4-[[(1R)-3-amino-1-(5-isoxazolyl)propyl]thio]-3-pyridinecarbonitrile (E)-butenedioate] |
| 142 to 143 °C | COc1cc(S[C@H](CCN)c2ccno2)c(Cl)cn1 (as salt: salt) [Example 15, γ-[(5-Chloro-2-methoxy-4-pyridinyl)thio]-(γ^5R)-5-isoxazolepropanamine (E)-butenedioate] |
| 160 to 161 °C | N#Cc1ccc(C(F)(F)F)nc1O[C@H](CCN)c1ccon1.O=C(O)/C=C/C(=O)O [Example 11, 2-[[(1R)-3-Amino-1-(3-isoxazolyl)propyl]oxy]-6-(trifluoromethyl)-3-pyridinecarbonitrile (E)-butenedioate] |
| 103 to 104 °C | Cc1ccc(C#N)c(SC(CCN)c2ccns2)n1.O=C(O)C(=O)O (stereo not drawn) [Example 21, 2-[[3-Amino-1-(5-isothiazolyl)propyl]thio]-6-methyl-3-pyridinecarbonitrile Ethanedioate] |
| 186 to 187 °C | Cc1ccc(C#N)c(S[C@H](CCN)c2cc(Cl)no2)n1.O=C(O)/C=C/C(=O)O [Example 19, 2-[[(1R)-3-Amino-1-(3-chloro-5-isoxazolyl)propyl]thio]-6-methyl-3-pyridinecarbonitrile (E)-butenedioate] |
| 173 to 174 °C | COc1cc(O[C@H](CCN)c2ccon2)c(C#N)cn1.O=C(O)C(=O)O [Example 25, 4-[[(1R)-3-Amino-1-(3-isoxazolyl)propyl]oxy]-6-methoxy-3-pyridinecarbonitrile Ethanedioate] |
| 163 to 165 °C | Cc1cc([C@@H](CCN)Oc2nc(C(F)(F)F)ccc2C#N)no1 [Example 24, 2-[[(1R)-3-Amino-1-(5-methyl-3-isoxazolyl)propyl]oxy]-6-(trifluoromethyl)-3-peridinecarbonitrile Ethanedioate] |
| 132 to 134 °C | Cc1ccc(C#N)c(SC(CCN)c2nocc2C)n1.O=C(O)C(=O)O (stereo not drawn) [Example 26, 2-[[3-Amino-1-(4-methyl-3-isoxazolyl)propyl]thio]-6-methyl-3-pyridinecarbonitrile Ethanedioate] |
| 180 to 181 °C | Cc1cc(SC(CCN)c2scnc2Cl)c(C#N)cn1.O=C(O)/C=C/C(=O)O (stereo not drawn) [Example 28, 4-[[3-Amino-1-(4-chloro-5-thiazolyl)propyl]thio]-6-methyl-3-pyridinecarbonitrile (E)-butenedioate] |
| 152 to 153 °C | COc1cc(S[C@H](CCN)c2ccno2)c(C#N)cn1.O=C(O)/C=C/C(=O)O [Example 16, 4-[[(1R)-3-Amino-1-(5-isoxazolyl)propyl]thio]-6-methoxy-3-pyridinecarbonitrile (E)-butenedioate] |

| Compound | melting point |
| --- | --- |
| N#Cc1ccc(C(F)(F)F)nc1OC(CCCN)c1ccno1.O=C(O)/C=C/C(=O)O (stereo not drawn) [Example 42, 2-[4-Amino-1-(5-isoxazolyl)butoxy]-6-(trifluoromethyl)-3-pyridinecarbonitrile (E)-butenedioate] | 155 to 157 °C |
